Square brackets hold non-standard residues; d marks the D form. Peptide text beside a SMILES is read from it. Nle = CCCC[C@H](N)C(=O)O
What was measured:
[1] = test system: Hsp70; assay: Cellular Hsp70 levels in CHO cells; assay type: cell-based, Chinese hamster
[2] = test system: hsp70 (hsp72) mRNA; assay: Northern blot of hsp70 (hsp72) mRNA in HepG2 cells; assay type: cell-based, human
Experimental: HepG2 cells were treated with serum-free MEM containing either 1.5% BSA alone (Control, lane1), BSA plus 40 μg/ml of ALLN (ALLN, lane2), ALLN and 10 μg/ml of actinomycin D (A+AD, lane3), or ALLN and 50 μg/ml of cycloheximide (A+CXM, lane4). After 4 hours treatment at 37° C., cells were harvested. (B). HepG2 cells were treated with 40 μg/ml of ALLN in the serum-free MEM for up to 0 hour (lane1), 1 hour (lane2), 2 hours (lane3), and 3 hours (lane4) and then harvested without recovery. Or after treatment for 3 hours in the presence of ALLN as above, the ALLN containing medium were removed, cells were washed and fed fresh medium containing only BSA for recovery of up to 1 hour (lane5), 3 hours (lane6), 5 hours (lane7) or 7 hours (lane8). The total RNA was prepared, and equal amounts of the samples were loaded and run on a 1% formaldehyde-agarose gel, blotted onto a nylon membrane, and subsequently hybridized with specific synthetic oligonucleotide probes for hsp70 mRNA as described under Experimental Details. The position of 28S and 18S rRNA are shown for reference.
Total RNA was prepared using the procedure of Chomczynski and Sacchi (Chomczynski, et al., 1987) and a commercially prepared reagent, TRISOLV™ (Biotecx Laboratories Inc., Tex.) . Equal amounts of tRNA samples (10 μg) were size-fractionated on a 1% agarose-formaldehyde gel according to the methods described (Maniatis, et al., 1982) and transferred to a piece of QIAGEN plus nylon membrane. To determine loading and transfer efficiency, RNA was stained with ethidium bromide before and after transfer. The membrane was baked for 30 min. at 80° C. in vacuo (a vacuum) followed by UV cross-linking. It was then incubated for 4 hours at 65° C. in a prehybridization mixture containing 10% dextran sulfate, 1% SDS, 1M sodium chloride, 50 mM Tris-HCl (pH 7.5) and 100 μg/ml denatured salmon sperm DNA. Hybridization was carried out for 18 hours at 65° C. in the same buffer with a ^32 P-labeled (1×10^6 cpm/ml) 40-mer oligonucleotide probe to the untranslated 5' region of a human hsp70 gene (Oncogene Science). […] The membrane was then washed four times with 2×SSC, 0.1% SDS at room temperature, one time at 65° C. for 30 min., and one time at room temperature again for 5 min., and finally rinsed with 2×SSC at room temperature. This membrane was air dried and exposed to X-ray film at -80° C. for 48 hours.
Total RNA was isolated from HepG2 cells which had been incubated for 4 hours at 37° C. (FIG. 5A) with MEM containing BSA alone (Control, lane1), BSA plus 40 μg/ml of ALLN (ALLN, lane2), BSA plus ALLN and […] of actinomycin D (A+AD, lane3) or BSA plus ALLN and 50 μg/ml of cycloheximide (A+CXM, lane4). A radioprobe containing a unique sequence specific for the 5' untranslated region of hsp72 (inducible form) (Freeman et al., 1993) was used for Northern blot analysis.

[3] = test system: HSF1; assay: Western blot of steady-state HSF1 protein levels in HepG2 whole cell extracts; assay type: cell-based, human; conditions: ALLN 40 μg/ml, 2 hours, with or without cycloheximide
Experimental: FIGS. 6A-6B: ALLN affects the trimerization of HSF. HepG2 cells were treated with serum-free MEM containing 1.5% BSA for 2 hours at 37° C. without any additions (lane1), at 37 ° C. but containing 40μg/ml of ALLN in the medium (lane2), at 37° C. in a medium containing both ALLN and 50 μg/ml of cycloheximide (lane3) , at 42° C. alone (lane4), or at 42° C. plus cycloheximide in the medium (lane5). Cell lysates were prepared as described under Experimental Details. The lysates were either directly run on the SDS-PAGE (A) to show the steady-state protein levels of HSF1 or subjected to cross-linking with ethylene glycol bis sucrinimidylsuccinate (EGS) before running the gel (B) to show the oligomeric forms of HSF1. The proteins were then transfered to a nitrocellulose membrane and immunoblotted with anti-human HSF1 antibody. Arrows on the right side indicates the monomeric, dimeric or trimeric forms of HSF1, respectively. This experiment was repeated three times with identical results.
For measurement of the steady-state HSF1 protein levels, whole cell extracts were prepared by lysing the cells directly with 2×SDS-sample buffer (Maniatis, et al., 1982). For chemical cross-linking experiments, whole-cell extracts were prepared as described (Mosser, et al., 1988). Briefly, the cold PBS-washed cell pellets were quickly and repeatedly frozen in liquid nitrogen. […]

For `CCCC[C@@H](C=O)NC(=O)[C@H](CC(C)C)NC(=O)[C@H](CC(C)C)NC(C)=O` [ALLN, N-acetyl-leucyl-leucyl-norleucinal] (Ac-Leu-Leu-[Nle]-aldehyde), the “Response of cellular Hsp70 levels” value [1] was “increasing cellular Hsp70 levels”, the “hsp70 (hsp72) mRNA after recovery” value ([2]; 3 hours ALLN 40 μg/ml, then 7 hours of recovery in ALLN-free medium) was “declined to background levels” and the “Time of ALLN treatment to significant elevation of hsp70 (hsp72) mRNA” value ([2]; ALLN 40 μg/ml) was no more than 60 min. The “Amount of hsp70 (hsp72) mRNA” value ([2]; ALLN 40 μg/ml, 4 hours at 37° C.) was “increased dramatically” and the “Steady-state levels of HSF1 in whole cell extracts” value [3] was “not significantly affected”.
